Results taken from PubChem BioAssay AID1919003 (Molecular Pharmacology Branch, DTP, NCI, 2023).

System: 786-0 complex spheroids with HUVEC/MSC, growth % test/control
Assay: Anticancer human tumor 786-0 cell line growth inhibition [AhR];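 note: compound exposure lasted seven days before the read-out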
Details: for IC50: curve of first compound; for viability, T/C: stronger effect = lower value
From the text: Multicellular complex tumor spheroid response to aryl hydrocarbon receptor antagonists in combination with a variety of drugs and investigational agents in selected tumor cell lines
The current study was undertaken to assess response to aryl hydrocarbon receptor antagonists in combination with standard-of-care drugs and investigational agents in solid tumor complex spheroid models. Complex spheroids include a stromal component modeled by human endothelial cells (HUVEC) and fibroblasts modeled by human mesenchymal stem cells (MSCs). The concentration ranges selected for each drug and investigational agent were based upon clinically achievable concentrations if the clinical Cmax of the agent was known.
Compounds. The drugs and investigational agents: BAY 2416964 (NSC825713), GNF351 (NSC835774), CH-223191 (NSC835775), CPI-455 (NSC825282), aza-TdCyd (NSC777586), decitabine (NSC127716), belinostat (NSC758774), entinostat (NSC756642), pevonedistat (NSC761192), tazemetostat (NSC777109), talazoparib (NSC765396), olaparib (NSC753686), selinexor (NSC780203), nedisertib (M3814, NSC802822), bortezomib (NSC756655), venetoclax (NSC766270), doxorubicin (NSC123127), elimusertib (BAY189344, NSC800525), ceralasertib (AZD6738, NSC777638), TAK-243 (NSC785004), alisertib (NSC759677), etoposide (NSC141540), topotecan (NSC609699), eribulin (NSC707389), gemcitabine (NSC613327), carboplatin (NSC241240), cisplatin (NSC119875), and SN-38 (NSC673596) were obtained from the National Cancer Institute (NCI) Developmental Therapeutics Program Chemical Repository (32). The FDA-approved anticancer drug set is available from the Developmental Therapeutics Program at https://dtp.cancer.gov/organization/dscb/obtaining/available plates.htm. […] The stock solutions were prepared in dimethyl sulfoxide (DMSO, Sigma-Aldrich, St. Louis, MO, cat. D2650), except for the platinum compounds which were prepared in saline (Quality Biological, Gaithersburg, MD, cat. 114-055-101), at 800-fold the tested concentration and stored at -70 degrees C prior to their use. All drugs and investigational agents were tested over a range starting from a high concentration at or near the clinical Cmax and decreasing in half-log increments. If the clinical Cmax for an agent had not been determined, the highest concentration tested was 10 microM (Table 1).
Cell Culture. All cells were maintained in an incubator at 37 degrees C and 5% CO2 with 95% humidity. The PDC lines were cultured according to standard operating procedures established by the NCI PDMR (https://pdmr.cancer.gov). Briefly, all PDCs were thawed and cultured in Matrigel-coated flasks prepared with a working solution of 1X Ham's F-12 nutrient mix, without supplementation (Invitrogen, Waltham, MA, cat. 11765054), 100 U/mL penicillin-streptomycin (Invitrogen, cat. 15140122), and 2.5% Matrigel (Corning Inc., Corning, NY, cat. 354248) for the first three passages. All PDCs were cultured in complete DMEM/F-12 media containing advanced DMEM/F-12 (Invitrogen, cat. 12634028), 4.9% defined fetal bovine serum, heat inactivated (HyClone Laboratories Inc., Logan, UT, cat. SH30070.03HI), 389 ng/mL hydrocortisone (Sigma-Aldrich, cat. H4001), 9.7 ng/mL human EGF recombinant protein (Invitrogen, cat. PHG0313), 23.4 microg/mL adenine (Sigma-Aldrich, cat. A2786), 97.3 U/mL penicillin-streptomycin (Invitrogen, cat. 15140122), 1.9 mM L-glutamine (Invitrogen, cat. 25030081), and 9.7 microM Y-27632 dihydrochloride (Tocris Bioscience, Bristol, United Kingdom, cat. 1254). The PDCs were cultured in complete DMEM/F12 media without 10 microM Y-27632 dihydrochloride for at least two passages prior to the screen. The established cell lines NCI-H1341 and […] were cultured in DMEM/F-12, HEPES (Invitrogen, cat. 11330032), 5% defined fetal bovine serum (HyClone Laboratories Inc., cat. SH30070.03), ITS premix universal culture supplement [insulin (5 microg/mL), transferrin (5 microg/mL), and selenious acid (5 ng/mL)] […]

[1] = second compound 0.1 µM, first compound 0.0316 µM
[2] = second compound 0.1 µM, first compound 0.1 µM
[3] = second compound 0.1 µM, first compound 0.316 µM
[4] = second compound 0.1 µM, first compound 1 µM
[5] = second compound 0.1 µM, first compound 3.16 µM
[6] = second compound 0.1 µM, first compound 10 µM
[7] = second compound 0.316 µM, first compound 0.0316 µM
[8] = second compound 0.316 µM, first compound 0.1 µM
[9] = second compound 0.316 µM, first compound 0.316 µM
[10] = second compound 0.316 µM, first compound 1 µM
[11] = second compound 0.316 µM, first compound 3.16 µM
[12] = second compound 0.316 µM, first compound 10 µM
[13] = second compound 1 µM, first compound 0.0316 µM
[14] = second compound 1 µM, first compound 0.1 µM
[15] = second compound 1 µM, first compound 0.316 µM
[16] = second compound 1 µM, first compound 1 µM
[17] = second compound 1 µM, first compound 3.16 µM
[18] = second compound 1 µM, first compound 10 µM
[19] = second compound 3.16 µM, first compound 0.0316 µM
[20] = second compound 3.16 µM, first compound 0.1 µM
[21] = second compound 3.16 µM, first compound 0.316 µM
[22] = second compound 3.16 µM, first compound 1 µM
[23] = second compound 3.16 µM, first compound 3.16 µM
[24] = second compound 3.16 µM, first compound 10 µM
[25] = second compound 10 µM, first compound 0.0316 µM
[26] = second compound 10 µM, first compound 0.1 µM
[27] = second compound 10 µM, first compound 0.316 µM
[28] = second compound 10 µM, first compound 1 µM
[29] = second compound 10 µM, first compound 3.16 µM
[30] = second compound 10 µM, first compound 10 µM

Row | Structure (SMILES) | IC50 (second compound 0.1 µM) | IC50 (second compound 0.316 µM) | IC50 (second compound 1 µM) | IC50 (second compound 3.16 µM) | IC50 (second compound 10 µM) | viability, T/C [1] | viability, T/C [2] | viability, T/C [3] | viability, T/C [4] | viability, T/C [5] | viability, T/C [6] | viability, T/C [7] | viability, T/C [8] | viability, T/C [9] | viability, T/C [13] | viability, T/C [14] | viability, T/C [19] | viability, T/C [20] | viability, T/C [25] | viability, T/C [26] | further results
1 | COc1cc(Nc2ncc3c(n2)-c2ccc(Cl)cc2C(c2c(F)cccc2OC)=NC3)ccc1C(=O)O + CC(CO)NC(=O)c1cc(-c2ccc(Cl)cc2)nn(-c2cnn(C)c2)c1=O | 2.79 µM | 2.6 µM | 2.55 µM | 2.54 µM | 2.82 µM | 101% | 96.8% | 99.9% | 82% | 46.4% | 23.9% | 106% | 100% | 107% | 96.8% | 103% | 107% | 93.2% | 92.3% | 86.7% | viability, T/C [10]: 84.7%; viability, T/C [11]: 43.2%; viability, T/C [12]: 19.8%; viability, T/C [15]: 108%; viability, T/C [16]: 80.2%; viability, T/C [17]: 44%; viability, T/C [18]: 20.3%; viability, T/C [21]: 104%; viability, T/C [22]: 87.9%; viability, T/C [23]: 41.1%; viability, T/C [24]: 19.9%; viability, T/C [27]: 101%; viability, T/C [28]: 85%; viability, T/C [29]: 46.2%; viability, T/C [30]: 19.5%
2 | Cn1ncnc1C1c2n[nH]c(=O)c3cc(F)cc(c23)NC1c1ccc(F)cc1 (stereo not given) + CC(CO)NC(=O)c1cc(-c2ccc(Cl)cc2)nn(-c2cnn(C)c2)c1=O | > 0.1 µM | > 0.1 µM | > 0.1 µM | > 0.1 µM | > 0.1 µM | 113% | 98.8% |  |  |  |  | 109% | 98.7% |  | 107% | 99.3% | 100% | 102% | 110% | 110% | viability, T/C (second compound 0.1 µM, first compound 0.000316 µM): 105%; viability, T/C (second compound 0.1 µM, first compound 0.001 µM): 97.4%; viability, T/C (second compound 0.1 µM, first compound 0.00316 µM): 95%; viability, T/C (second compound 0.1 µM, first compound 0.01 µM): 99.6%; viability, T/C (second compound 0.316 µM, first compound 0.000316 µM): 101%; viability, T/C (second compound 0.316 µM, first compound 0.001 µM): 105%; viability, T/C (second compound 0.316 µM, first compound 0.00316 µM): 97.8%; viability, T/C (second compound 0.316 µM, first compound 0.01 µM): 98.2%; viability, T/C (second compound 1 µM, first compound 0.000316 µM): 99.3%; viability, T/C (second compound 1 µM, first compound 0.001 µM): 107%; viability, T/C (second compound 1 µM, first compound 0.00316 µM): 105%; viability, T/C (second compound 1 µM, first compound 0.01 µM): 110%; viability, T/C (second compound 3.16 µM, first compound 0.000316 µM): 107%; viability, T/C (second compound 3.16 µM, first compound 0.001 µM): 102%; viability, T/C (second compound 3.16 µM, first compound 0.00316 µM): 99.1%; viability, T/C (second compound 3.16 µM, first compound 0.01 µM): 111%; viability, T/C (second compound 10 µM, first compound 0.000316 µM): 114%; viability, T/C (second compound 10 µM, first compound 0.001 µM): 118%; viability, T/C (second compound 10 µM, first compound 0.00316 µM): 110%; viability, T/C (second compound 10 µM, first compound 0.01 µM): 111%
3 | NS(=O)(=O)OCC1CC(n2ccc3c(NC4CCc5ccccc54)ncnc32)CC1O (stereo not given) + CC(CO)NC(=O)c1cc(-c2ccc(Cl)cc2)nn(-c2cnn(C)c2)c1=O | 0.365 µM | 0.344 µM | 0.376 µM | 0.249 µM | 0.261 µM | 78.8% | 78.7% | 52.8% | 20.9% | 3.93% | 1.87% | 86.8% | 73.3% | 54.5% | 77.4% | 72.1% | 87.8% | 67.7% | 93% | 72.9% | viability, T/C [10]: 19.6%; viability, T/C [11]: 4.23%; viability, T/C [12]: 2.08%; viability, T/C [15]: 55.2%; viability, T/C [16]: 21.8%; viability, T/C [17]: 4%; viability, T/C [18]: 2.14%; viability, T/C [21]: 47.6%; viability, T/C [22]: 19.1%; viability, T/C [23]: 3.93%; viability, T/C [24]: 2.48%; viability, T/C [27]: 46.5%; viability, T/C [28]: 18.7%; viability, T/C [29]: 3.17%; viability, T/C [30]: 2.21%
4 | O=C(C=Cc1cccc(S(=O)(=O)Nc2ccccc2)c1)NO + CC(CO)NC(=O)c1cc(-c2ccc(Cl)cc2)nn(-c2cnn(C)c2)c1=O | 6.02 µM | 5.21 µM | 5.51 µM | 4.85 µM | 4.71 µM | 102% | 106% | 97.2% | 107% | 93.8% | 15.2% | 104% | 101% | 111% | 100% | 104% | 103% | 102% | 109% | 108% | viability, T/C [10]: 110%; viability, T/C [11]: 79%; viability, T/C [12]: 12%; viability, T/C [15]: 104%; viability, T/C [16]: 105%; viability, T/C [17]: 84.7%; viability, T/C [18]: 12.5%; viability, T/C [21]: 103%; viability, T/C [22]: 101%; viability, T/C [23]: 73.6%; viability, T/C [24]: 10%; viability, T/C [27]: 106%; viability, T/C [28]: 94.8%; viability, T/C [29]: 72.6%; viability, T/C [30]: 8.46%
